Results on one compound are retold here after paper PMC7817009, “Structural analysis of rice Os4BGlu18 monolignol β-glucosidase” (PLoS ONE, 2021).

The target of the test is T1, Os4BGlu18 (Oryza sativa, UniProt Q7XSK0).
T1 construct: gene BGLU18; mature protein without predicted signal peptide (1-26); N-terminal thioredoxin-His6 tag cut with enterokinase, a few tag residues remain; residues 27-500 seen, last five (LHENQ) disordered
Briefly: X-ray crystallography of soaked crystal, […] Å. As to conditions: crystals soaked in 1 mM for 20 min, MES pH 6.0; glycone-binding active site (subsite -1).

T1 sequence (Q7XSK0 27-505): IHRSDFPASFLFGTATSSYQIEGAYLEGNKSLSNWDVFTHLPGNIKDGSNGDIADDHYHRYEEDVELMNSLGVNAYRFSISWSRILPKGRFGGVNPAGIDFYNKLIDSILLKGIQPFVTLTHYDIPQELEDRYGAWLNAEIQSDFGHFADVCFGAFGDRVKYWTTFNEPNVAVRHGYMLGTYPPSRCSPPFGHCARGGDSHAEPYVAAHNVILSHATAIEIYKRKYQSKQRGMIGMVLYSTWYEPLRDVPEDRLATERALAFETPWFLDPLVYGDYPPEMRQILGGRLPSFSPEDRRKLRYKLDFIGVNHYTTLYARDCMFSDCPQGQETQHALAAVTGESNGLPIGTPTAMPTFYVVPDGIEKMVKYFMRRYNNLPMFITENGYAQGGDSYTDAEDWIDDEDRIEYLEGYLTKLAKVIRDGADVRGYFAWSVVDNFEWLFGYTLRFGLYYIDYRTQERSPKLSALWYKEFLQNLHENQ

In the case of `O=C1O[C@H](CO)[C@@H](O)[C@H](O)[C@H]1O` [DG, δ-gluconolactone], the “X-ray crystallography of soaked crystal, 2.1 Å” value is given as “could be observed in the active site pocket”.
